Results as given in ChEMBL document CHEMBL1138518 (J Med Chem, 2009).

What was measured:
[1] = tested on: SK-BR-3; test: Cytotoxicity against human SKBR3 cells after 72 hrs by celltiter-glo assay; type: functional, cell-based
[2] = molecular target: Heat shock protein HSP 90-beta (Homo sapiens, UniProt P08238); test: Binding affinity to human recombinant HSP90
[3] = tested on: MCF7; test: Cytotoxicity against human MCF7 cells after 72 hrs by celltiter-glo assay; type: functional, cell-based; details: MCF7, 72 h
[4] = tested on: CCRF-CEM; test: Cytotoxicity against human CCRF-CEM cells after 72 hrs by celltiter-96 aqueous one solution assay; type: functional, cell-based
[5] = tested on: SK-OV-3; test: Cytotoxicity against human SKOV3 cells after 72 hrs by celltiter-glo assay; type: functional, cell-based; details: SK-OV-3, 72 h
[6] = tested on: A549; test: Cytotoxicity against human A549 cells after 72 hrs by celltiter-glo assay; type: functional, cell-based; details: A549, 72 h
[7] = tested on: CCRF-CEM; test: Cytotoxicity against human paclitaxel-resistant CCRF-CEM cells after 72 hrs by celltiter-96 aqueous one solution assay; type: functional, cell-based

Heat shock protein HSP 90-beta, sequence (P08238 whole entry): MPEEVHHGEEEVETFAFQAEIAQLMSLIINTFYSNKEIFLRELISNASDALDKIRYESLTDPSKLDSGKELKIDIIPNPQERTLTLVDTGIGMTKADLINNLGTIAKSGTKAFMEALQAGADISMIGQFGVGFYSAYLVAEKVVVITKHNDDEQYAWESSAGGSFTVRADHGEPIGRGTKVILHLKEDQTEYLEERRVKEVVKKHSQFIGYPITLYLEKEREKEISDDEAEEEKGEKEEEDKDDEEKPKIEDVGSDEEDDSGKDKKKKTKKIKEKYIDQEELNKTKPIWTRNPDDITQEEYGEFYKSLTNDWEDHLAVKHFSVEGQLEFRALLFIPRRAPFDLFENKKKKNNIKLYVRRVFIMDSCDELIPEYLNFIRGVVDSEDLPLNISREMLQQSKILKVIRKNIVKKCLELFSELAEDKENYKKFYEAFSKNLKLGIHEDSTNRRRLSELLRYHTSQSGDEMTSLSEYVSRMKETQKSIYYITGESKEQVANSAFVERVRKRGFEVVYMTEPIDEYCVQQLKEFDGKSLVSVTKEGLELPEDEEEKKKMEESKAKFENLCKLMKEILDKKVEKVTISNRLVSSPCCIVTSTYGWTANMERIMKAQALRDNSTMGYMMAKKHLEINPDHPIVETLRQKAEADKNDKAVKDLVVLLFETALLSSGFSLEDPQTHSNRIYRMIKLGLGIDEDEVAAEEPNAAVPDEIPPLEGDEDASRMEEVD

SMILES	IC50 ([1]; Homo sapiens, SK-BR-3, 72 h) [nM]	Kd [2] [nM]	also measured
CO[C@H]1/C=C\C=C(/C)C(=O)NC2=CC(=O)C(N3CCC3)=C(C[C@@H](C)C[C@H](OC)[C@H](O)[C@@H](C)/C=C(\C)[C@@H]1OC(N)=O)C2=O (stereo in doubt)	24	1400	–
COC1=C2C[C@@H](C)C[C@H](OC)[C@H](O)[C@@H](C)/C=C(\C)[C@H](OC(N)=O)[C@@H](OC)/C=C\C=C(/C)C(=O)NC(=CC1=O)C2=O [GELDANAMYCIN]	–	–	IC50 ([1]; sk-br-3): 41 nM
CO[C@H]1C[C@H](C)CC2=C(N3CCC3)C(=O)C=C(NC(=O)/C(C)=C/C=C\[C@H](OC)[C@@H](OC(N)=O)/C(C)=C/[C@H](C)/C1=N\O)C2=O	310	> 25000	–
CO[C@H]1/C=C\C=C(/C)C(=O)NC2=CC(=O)C(NCCN3CCCC3)=C(C[C@@H](C)C[C@H](OC)[C@H](O)[C@@H](C)/C=C(\C)[C@@H]1OC(N)=O)C2=O (stereo in doubt)	70	400	–
CO/N=C1/[C@@H](OC)C[C@H](C)CC2=C(NCCN(C)C)C(=O)C=C(NC(=O)/C(C)=C/C=C\[C@H](OC)[C@@H](OC(N)=O)/C(C)=C/[C@@H]1C)C2=O (stereo in doubt)	550	> 100000	–
C=CCNC1=C2C[C@@H](C)C[C@H](OC)C(=O)[C@@H](C)/C=C(\C)[C@H](OC(N)=O)[C@@H](OC)/C=C\C=C(/C)C(=O)NC(=CC1=O)C2=O (stereo in doubt)	450	3300	–
CO[C@H]1C[C@H](C)CC2=C(NCCF)C(=O)C=C(NC(=O)/C(C)=C/C=C\[C@H](OC)[C@@H](OC(N)=O)/C(C)=C/[C@H](C)/C1=N\O)C2=O	> 1000	> 25000	–
CO[C@H]1[C@@H](OC)C[C@H](C)CC2=C(NCCN3CCC3)C(=O)C=C(NC(=O)/C(C)=C/C=C\[C@H](OC)[C@@H](OC(N)=O)/C(C)=C/[C@@H]1C)C2=O (stereo in doubt)	130	1000	IC50 [3]: 51 nM; IC50 [4]: 85 nM; IC50 [5]: 65 nM; IC50 [6]: 26 nM; IC50 [7]: 510 nM
C=CCO[C@H]1[C@@H](OC)C[C@H](C)CC2=C(N3CCC3)C(=O)C=C(NC(=O)/C(C)=C/C=C\[C@H](OC)[C@@H](OC(N)=O)/C(C)=C/[C@@H]1C)C2=O	390	2900	–
CO[C@H]1[C@@H](OC)C[C@H](C)CC2=C(NCCF)C(=O)C=C(NC(=O)/C(C)=C/C=C\[C@H](OC)[C@@H](OC(N)=O)/C(C)=C/[C@@H]1C)C2=O (stereo in doubt)	130	2300	IC50 [3]: 58 nM; IC50 [4]: 960 nM; IC50 [5]: 460 nM; IC50 [6]: 67 nM; IC50 [7]: 2700 nM
CO[C@H]1[C@@H](OC)C[C@H](C)CC2=C(N3CCC3)C(=O)C=C(NC(=O)/C(C)=C/C=C\[C@H](OC)[C@@H](OC(N)=O)/C(C)=C/[C@@H]1C)C2=O (stereo in doubt)	24	4000	IC50 [3]: 63 nM; IC50 [4]: 420 nM; IC50 [5]: 110 nM; IC50 [6]: 29 nM; IC50 [7]: 2500 nM
CO[C@H]1/C=C\C=C(/C)C(=O)NC2=CC(=O)C(NCCF)=C(C[C@@H](C)C[C@H](OC)[C@H](OC(=O)CN)[C@@H](C)/C=C(\C)[C@@H]1OC(N)=O)C2=O (stereo in doubt)	110	> 25000	–
CO[C@H]1C[C@H](C)CC2=C(N3CCC3)C(=O)C=C(NC(=O)/C(C)=C/C=C\[C@H](OC)[C@@H](OC(N)=O)/C(C)=C/[C@H](C)C1=O)C2=O (stereo in doubt)	260	6400	–
CO[C@H]1C[C@H](C)CC2=C(NCCN(C)C)C(=O)C=C(NC(=O)/C(C)=C/C=C\[C@H](OC)[C@@H](OC(N)=O)/C(C)=C/[C@H](C)C1=O)C2=O (stereo in doubt)	100	1800	–
CO[C@H]1C[C@H](C)CC2=C(NCCF)C(=O)C=C(NC(=O)/C(C)=C/C=C\[C@H](OC)[C@@H](OC(N)=O)/C(C)=C/[C@H](C)C1=O)C2=O (stereo in doubt)	170	2600	–
CO[C@H]1/C=C\C=C(/C)C(=O)NC2=CC(=O)C(NCCN3CCC3)=C(C[C@@H](C)C[C@H](OC)[C@H](O)[C@@H](C)/C=C(\C)[C@@H]1OC(N)=O)C2=O (stereo in doubt)	26	400	–

SMILES	IC50 ([1]; Homo sapiens, SK-BR-3, 72 h) [nM]	Kd [2] [nM]	also measured
CO[C@H]1/C=C\C=C(/C)C(=O)NC2=CC(=O)C(NCCN(C)C)=C(C[C@@H](C)C[C@H](OC)[C@H](OC(=O)NN)[C@@H](C)/C=C(\C)[C@@H]1OC(N)=O)C2=O	> 1000	–	IC50 [2]: 5 nM
C=CCO/N=C1/[C@@H](OC)C[C@H](C)CC2=C(NCCN(C)C)C(=O)C=C(NC(=O)/C(C)=C/C=C\[C@H](OC)[C@@H](OC(N)=O)/C(C)=C/[C@@H]1C)C2=O (stereo in doubt)	400	> 100000	–
C=CCNC1=C2C[C@@H](C)C[C@H](OC)/C(=N/O)[C@@H](C)/C=C(\C)[C@H](OC(N)=O)[C@@H](OC)/C=C\C=C(/C)C(=O)NC(=CC1=O)C2=O	350	> 10000	–
CO[C@H]1/C=C\C=C(/C)C(=O)NC2=CC(=O)C(N)=C(C[C@@H](C)C[C@H](OC)[C@H](O)[C@@H](C)/C=C(\C)[C@@H]1OC(N)=O)C2=O (stereo in doubt)	33	100	–
CO[C@H]1/C=C\C=C(/C)C(=O)NC2=CC(=O)C(NCCN(C)C)=C(C[C@@H](C)C[C@H](OC)[C@H](O)[C@@H](C)/C=C(\C)[C@@H]1OC(N)=O)C2=O (stereo in doubt) [ALVESPIMYCIN]	24	–	IC50 [3]: 230 nM; IC50 [4]: 540 nM; IC50 [5]: 220 nM; IC50 [6]: 68 nM; IC50 [7]: 2500 nM
CO[C@H]1/C=C\C=C(/C)C(=O)NC2=CC(=O)C(NCCc3c[nH]cn3)=C(C[C@@H](C)C[C@H](OC)[C@H](O)[C@@H](C)/C=C(\C)[C@@H]1OC(N)=O)C2=O (stereo in doubt)	98	800	–
CO[C@H]1[C@@H](OC)C[C@H](C)CC2=C(NCCN(C)C)C(=O)C=C(NC(=O)/C(C)=C/C=C\[C@H](OC)[C@@H](OC(N)=O)/C(C)=C/[C@@H]1C)C2=O	11	800	IC50 [3]: 50 nM; IC50 [4]: 58 nM; IC50 [5]: 43 nM; IC50 [6]: 23 nM; IC50 [7]: 390 nM
CO[C@H]1/C=C\C=C(/C)C(=O)NC2=CC(=O)C(NCCF)=C(C[C@@H](C)C[C@H](OC)[C@H](O)[C@@H](C)/C=C(\C)[C@@H]1OC(N)=O)C2=O (stereo in doubt)	17	800	–
CO[C@H]1C[C@H](C)CC2=C(NCCN(C)C)C(=O)C=C(NC(=O)/C(C)=C/C=C\[C@H](OC)[C@@H](OC(N)=O)/C(C)=C/[C@H](C)/C1=N\OCC(=O)O)C2=O (stereo in doubt)	2700	> 25000	–
COC1=C2C[C@@H](C)C[C@H](OC)[C@H](OC)[C@@H](C)/C=C(\C)[C@H](OC(N)=O)[C@@H](OC)/C=C\C=C(/C)C(=O)NC(=CC1=O)C2=O	9.1	490	–
C=CCNC1=C2C[C@@H](C)C[C@H](OC)[C@H](O)[C@@H](C)/C=C(\C)[C@H](OC(N)=O)[C@@H](OC)/C=C\C=C(/C)C(=O)NC(=CC1=O)C2=O [TANESPIMYCIN]	33	–	–
CO[C@H]1C[C@H](C)CC2=C(NCCN(C)C)C(=O)C=C(NC(=O)/C(C)=C/C=C\[C@H](OC)[C@@H](OC(N)=O)/C(C)=C/[C@H](C)/C1=N\O)C2=O (stereo in doubt)	95	> 10000	–
CO[C@H]1[C@@H](OC)C[C@H](C)CC2=C(NCCN3CCCC3)C(=O)C=C(NC(=O)/C(C)=C/C=C\[C@H](OC)[C@@H](OC(N)=O)/C(C)=C/[C@@H]1C)C2=O (stereo in doubt)	160	1000	IC50 [3]: 76 nM; IC50 [4]: 160 nM; IC50 [5]: 69 nM; IC50 [6]: 62 nM; IC50 [7]: 520 nM
C=CCNC1=C2C[C@@H](C)C[C@H](OC)[C@H](OC)[C@@H](C)/C=C(\C)[C@H](OC(N)=O)[C@@H](OC)/C=C\C=C(/C)C(=O)NC(=CC1=O)C2=O (stereo in doubt)	280	2800	IC50 [3]: 760 nM; IC50 [4]: 2500 nM; IC50 [5]: 1300 nM; IC50 [6]: 360 nM; IC50 [7]: 3500 nM
CO[C@H]1C[C@H](C)CC2=C(NCCN(C)C)C(=O)C=C(NC(=O)/C(C)=C/C=C\[C@H](OC)[C@@H](OC(N)=O)/C(C)=C/[C@H](C)/C1=N\OCCN(C)C)C2=O (stereo in doubt)	2500	> 100000	–
CO[C@H]1C[C@H](C)CC2=C(NCCN(C)C)C(=O)C=C(NC(=O)/C(C)=C/C=C\[C@H](OC)[C@@H](OC(N)=O)/C(C)=C/[C@H](C)/C1=N\OCc1ccccc1)C2=O (stereo in doubt)	480	> 100000	–
